Source: patent EP0207913A1, “Catechol carboxamides, process for their preparation, intermediates and a pharmaceutical preparation” (priority 1985, dated 1987)
Where two headings read alike, the source gives them in different places.

System: apomorphine syndrome
Test: In vivo test: apomorphine syndrome inhibition
Design: species or system Male Sprague-Dawley rats
Conditions: ip, rat, compound injected 60 min prior to apomorphine hydrochloride 1 mg/kg s.c.
Description: Male Sprague-Dawley rats (weighing 225-275 g) were used. […] The compounds were injected 60 min. prior to apomorphine hydrochloride (1 mg/kg) which was injected subcutaneously (s.c.) into the neck.
Directly after injection, the animals were placed in the cages, one in each cage. Scoring of the stereotypies were performed by two separate methods. The first scoring system was a modified version of the system introduced by Costall and Naylor (1973). The strength of the stereotype was scored on a 0-3 scale as follows:
In the second system the number of animals displaying hyperactivity caused by apomorphine were scored. Each group consisted of 6-8 animals. Saline controls were always run simultaneously. […] ED50's of the second scoring system are the doses which reduce the number of animals showing hyperactivity by 50 % over the observation period of ? min. The ED50 were calculated from log dose-response curves by the method of least squares from 4-6 dose levels with 6-8 animals per dose level.

[1] = dose reducing number of animals showing hyperactivity by 50 %, read-out: Reduction of hyperactivity ED50
[2] = dose reducing strength of stereotypies (0-3 scale) by 50 % over 60 min, read-out: Reduction of stereotypies ED50

Row | Structure (SMILES) | ED50 [1] [µmol/kg] | ED50 [2] [µmol/kg]
1 | C=CCN1CCCC1CNC(=O)c1cc(Br)cc(OC)c1OC (centres unmarked) | 0.02 | 0.12
2 | CCN1CCCC1CNC(=O)c1c(O)c(Cl)cc(Cl)c1OC (centres unmarked) [a compound of EP 60235] | 0.11 | 2.4
3 | CCN1CCCC1CNC(=O)c1cc(Br)ccc1OC (centres unmarked) [ex 5 of US 3 342 (26)] | 2.5 | 6.5
4 | CCN1CCCC1CNC(=O)c1cc(Br)cc(OC)c1OC (centres unmarked) | 0.0032 | 0.13
